Measurements from BigSolDB 2.1.

## CC(CO)(CO)C(=O)O
In DMF, 288.15 K
  solubility (mole fraction): 0.163
In DMF, 293.15 K
  solubility (mole fraction): 0.171
In DMF, 298.15 K
  solubility (mole fraction): 0.177
In DMF, 303.15 K
  solubility (mole fraction): 0.184
In DMF, 308.15 K
  solubility (mole fraction): 0.191
In DMF, 313.15 K
  solubility (mole fraction): 0.201
In DMF, 318.15 K
  solubility (mole fraction): 0.21
In DMF, 323.15 K
  solubility (mole fraction): 0.218
In DMF, 328.15 K
  solubility (mole fraction): 0.225
In acetone, 288.15 K
  solubility (mole fraction): 0.00255
In acetone, 293.15 K
  solubility (mole fraction): 0.00292
In acetone, 298.15 K
  solubility (mole fraction): 0.00366
In acetone, 303.15 K
  solubility (mole fraction): 0.004
In acetone, 308.15 K
  solubility (mole fraction): 0.00477
In acetone, 313.15 K
  solubility (mole fraction): 0.00564
In acetone, 318.15 K
  solubility (mole fraction): 0.00645
In acetone, 323.15 K
  solubility (mole fraction): 0.00753
In acetone, 328.15 K
  solubility (mole fraction): 0.00853
In ethanol, 288.15 K
  solubility (mole fraction): 0.0117
In ethanol, 293.15 K
  solubility (mole fraction): 0.0135
In ethanol, 298.15 K
  solubility (mole fraction): 0.0155
In ethanol, 303.15 K
  solubility (mole fraction): 0.0186
In ethanol, 308.15 K
  solubility (mole fraction): 0.0214
In ethanol, 313.15 K
  solubility (mole fraction): 0.0254
In ethanol, 318.15 K
  solubility (mole fraction): 0.0293
In ethanol, 323.15 K
  solubility (mole fraction): 0.0341
In ethanol, 328.15 K
  solubility (mole fraction): 0.0386
In ethyl acetate, 288.15 K
  solubility (mole fraction): 0.00042
In ethyl acetate, 293.15 K
  solubility (mole fraction): 0.00048
In ethyl acetate, 298.15 K
  solubility (mole fraction): 0.00056
In ethyl acetate, 303.15 K
  solubility (mole fraction): 0.00072
In ethyl acetate, 308.15 K
  solubility (mole fraction): 0.00096
In ethyl acetate, 313.15 K
  solubility (mole fraction): 0.00131
In ethyl acetate, 318.15 K
  solubility (mole fraction): 0.00163
In ethyl acetate, 323.15 K
  solubility (mole fraction): 0.00202
In ethyl acetate, 328.15 K
  solubility (mole fraction): 0.00253
In isopropanol, 288.15 K
  solubility (mole fraction): 0.00755
In isopropanol, 293.15 K
  solubility (mole fraction): 0.00901
In isopropanol, 298.15 K
  solubility (mole fraction): 0.0114
In isopropanol, 303.15 K
  solubility (mole fraction): 0.0131
In isopropanol, 308.15 K
  solubility (mole fraction): 0.0164
In isopropanol, 313.15 K
  solubility (mole fraction): 0.0185
In isopropanol, 318.15 K
  solubility (mole fraction): 0.0209
In isopropanol, 323.15 K
  solubility (mole fraction): 0.0252
In isopropanol, 328.15 K
  solubility (mole fraction): 0.0306
In methanol, 288.15 K
  solubility (mole fraction): 0.0223
In methanol, 293.15 K
  solubility (mole fraction): 0.0254
In methanol, 298.15 K
  solubility (mole fraction): 0.0288
In methanol, 303.15 K
  solubility (mole fraction): 0.0334
In methanol, 308.15 K
  solubility (mole fraction): 0.038
In methanol, 313.15 K
  solubility (mole fraction): 0.0436
In methanol, 318.15 K
  solubility (mole fraction): 0.0498
In methanol, 323.15 K
  solubility (mole fraction): 0.0566
In methanol, 328.15 K
  solubility (mole fraction): 0.0635
In methyl acetate, 288.15 K
  solubility (mole fraction): 0.00052
In methyl acetate, 293.15 K
  solubility (mole fraction): 0.00072
In methyl acetate, 298.15 K
  solubility (mole fraction): 0.00094
In methyl acetate, 303.15 K
  solubility (mole fraction): 0.00121
In methyl acetate, 308.15 K
  solubility (mole fraction): 0.00149
In methyl acetate, 313.15 K
  solubility (mole fraction): 0.00186
In methyl acetate, 318.15 K
  solubility (mole fraction): 0.00234
In methyl acetate, 323.15 K
  solubility (mole fraction): 0.00301
In methyl acetate, 328.15 K
  solubility (mole fraction): 0.0041
In n-butanol, 288.15 K
  solubility (mole fraction): 0.00666
In n-butanol, 293.15 K
  solubility (mole fraction): 0.00759
In n-butanol, 298.15 K
  solubility (mole fraction): 0.00911
In n-butanol, 303.15 K
  solubility (mole fraction): 0.0108
In n-butanol, 308.15 K
  solubility (mole fraction): 0.0132
In n-butanol, 313.15 K
  solubility (mole fraction): 0.0155
In n-butanol, 318.15 K
  solubility (mole fraction): 0.0181
In n-butanol, 323.15 K
  solubility (mole fraction): 0.0214
In n-butanol, 328.15 K
  solubility (mole fraction): 0.0257
In n-butyl acetate, 288.15 K
  solubility (mole fraction): 0.00033
In n-butyl acetate, 293.15 K
  solubility (mole fraction): 0.00038
In n-butyl acetate, 298.15 K
  solubility (mole fraction): 0.00046
In n-butyl acetate, 303.15 K
  solubility (mole fraction): 0.00053
In n-butyl acetate, 308.15 K
  solubility (mole fraction): 0.00063
In n-butyl acetate, 313.15 K
  solubility (mole fraction): 0.00075
In n-butyl acetate, 318.15 K
  solubility (mole fraction): 0.00087
In n-butyl acetate, 323.15 K
  solubility (mole fraction): 0.00098
In n-butyl acetate, 328.15 K
  solubility (mole fraction): 0.00113
In n-propanol, 288.15 K
  solubility (mole fraction): 0.00677
In n-propanol, 293.15 K
  solubility (mole fraction): 0.00775
In n-propanol, 298.15 K
  solubility (mole fraction): 0.00939
In n-propanol, 303.15 K
  solubility (mole fraction): 0.0111
In n-propanol, 308.15 K
  solubility (mole fraction): 0.0136
In n-propanol, 313.15 K
  solubility (mole fraction): 0.0161
In n-propanol, 318.15 K
  solubility (mole fraction): 0.0189
In n-propanol, 323.15 K
  solubility (mole fraction): 0.0226
In n-propanol, 328.15 K
  solubility (mole fraction): 0.027
In sec-butanol, 288.15 K
  solubility (mole fraction): 0.0068
In sec-butanol, 293.15 K
  solubility (mole fraction): 0.00792
In sec-butanol, 298.15 K
  solubility (mole fraction): 0.00935
In sec-butanol, 303.15 K
  solubility (mole fraction): 0.0112
In sec-butanol, 308.15 K
  solubility (mole fraction): 0.014
In sec-butanol, 313.15 K
  solubility (mole fraction): 0.0165
In sec-butanol, 318.15 K
  solubility (mole fraction): 0.0191
In sec-butanol, 323.15 K
  solubility (mole fraction): 0.0232
In sec-butanol, 328.15 K
  solubility (mole fraction): 0.0277
In water, 288.15 K
  solubility (mole fraction): 0.0133
In water, 293.15 K
  solubility (mole fraction): 0.0152
In water, 298.15 K
  solubility (mole fraction): 0.0169
In water, 303.15 K
  solubility (mole fraction): 0.0199
In water, 308.15 K
  solubility (mole fraction): 0.0231
In water, 313.15 K
  solubility (mole fraction): 0.0265
In water, 318.15 K
  solubility (mole fraction): 0.0305
In water, 323.15 K
  solubility (mole fraction): 0.0349
In water, 328.15 K
  solubility (mole fraction): 0.0414
